Converted amounts (≈) assume the structure as drawn. Where a name gives a salt, the structure may show the parent alone.

This assay concerns Epidermophyton floccosum. As to the kind of experiment: Antifungal activity against Epidermophyton floccosum assessed as inhibition of fungal growth incubated for 24 hrs. Format: functional.
As a reminder, the MIC50 is an inhibitory concentration at the 50% level, which refers to growth in some studies and to a panel of isolates in others. Consider `O=C(O)CCCCCCc1ccccc1/N=[N+](\[O-])c1ccccc1CCCCC(=O)O`, for which the MIC50 stood at 23.1 µM (≈ 9.85 µg/mL).

On to `O=C(O)CCCCCCc1ccccc1/N=[N+](\[O-])c1ccccc1CCCCCCC(=O)O`, for which the MIC50 worked out at 51.2 µM (≈ 23.3 µg/mL).

With `O=C(O)CCCCCCc1ccccc1/[N+]([O-])=N/c1ccccc1CCCCC(=O)O`, the MIC50 was determined as 10.1 µM (≈ 4.31 µg/mL).

As to `CN(C/C=C/C#CC(C)(C)C)Cc1cccc2ccccc12` [TERBINAFINE HYDROCHLORIDE], the MIC50 amounted to 0.003 µM.

The values are drawn from ChEMBL document CHEMBL5226380, “O-Alkylazoxymycins A-F, Naturally Occurring Azoxy-Aromatic Compounds from Streptomyces sp. Py50” (2023).
